Reference: US10857113B2, “Bezafibrate for the treatment of cancer” (Cipla Limited, priority 2016, dated 2020)

Test system: A498 cells
Test: In vivo animal efficacy study, subcutaneous tumor fragment xenograft
Set-up: species or system female athymic nude mice
Details: sunitinib 20 mg/kg, bezafibrate 150 mg/kg, p.o. q.d. × 21
Experimental: Healthy 10 female athymic nude mice were recruited for the donor cell inoculation. Animals were subcutaneously injected at flank region with 10 million A498 cells suspended in 200 μl of media and matrigel. Animals were monitored for solid tumor growth. […] Tumors were fragmented in to ˜30 mg size. […] [table] The tumor sizes were measured weekly twice from the date of tumor appearance till the end of the experiment. Tumor size was measured by digital vernier caliper (MITUTOYO) by measuring length (L=longest axis) and width (W=shortest axis). Tumor Volume (V) was calculated using formula: […] Mean tumor volume and % tumor growth inhibition (% TGI) were then calculated (SEM=standard error of mean).

Question: Which “Tumor Growth Inhibition” value (Day 1) does the source give for `CCN(CC)CCNC(=O)c1c(C)[nH]c(/C=C2\C(=O)Nc3ccc(F)cc32)c1C` [Sunitinib] here?
Answer: 1.47%

Question: What about the “Tumor Volume, Mean” value (Day 1) of the same molecule?
Answer: 145.40 mm^3

Question: What about the “Tumor Growth Inhibition” value (Day 6) of the same molecule?
Answer: 47.31%

Question: What about the “Tumor Volume, Mean” value (Day 6) of the same molecule?
Answer: 174.90 mm^3

Question: And the “Tumor Growth Inhibition” value (Day 9)?
Answer: 43.52%

Question: What about the “Tumor Volume, Mean” value (Day 9) of the same molecule?
Answer: 261.95 mm^3

Question: And the “Tumor Growth Inhibition” value (Day 13)?
Answer: 44.80%

Question: And the “Tumor Volume, Mean” value (Day 13)?
Answer: 340.62 mm^3

Question: What about the “Tumor Growth Inhibition” value (Day 16) of the same molecule?
Answer: 53.39%

Question: What about the “Tumor Volume, Mean” value (Day 16) of the same molecule?
Answer: 448.05 mm^3

Question: What about the “Tumor Growth Inhibition” value (Day 20) of the same molecule?
Answer: 50.78%

Question: And the “Tumor Volume, Mean” value (Day 20)?
Answer: 630.25 mm^3
